Results: patent publication US20240344082A1, “VIRAL […] USE IN ENHANCING T-CELL PRIMING DURING VACCINATION” (GeoVax, Inc., priority 2021, published 2024)

Experiments:
[1] = tested on: splenic PyCS-specific, IFN-γ-secreting CD8+ T cells; design: species or system mice; details: mouse, in vivo, sc
[2] = tested on: antigen-specific CD8+ T-cell expansion; details: in combination with adenovirus-based or irradiated sporozoite-based malaria vaccine; immune-competent mice; cited from earlier work

Q: For “CRRTSTGQISTLRVNITAPLSQ [LD01, synthetic peptide used as positive control]”, which “antigen-specific CD8+ T cell numbers relative to AdPyCS alone” value [1] is on record?
A: significantly increased

Q: What about the “antigen-specific CD8+ T-cell expansion” value [2] of the same sequence?
A: enhances
